The results in this text go back to PubChem BioAssay AID180 (DTP/NCI, 2004).

Where “and” joins values, the source holds several entries; their conditions need not be identical. Equal entries are not always repeated.

The assay has as its system BDF1 mice, Adenocarcinoma 755 s.c., tumor weight T/C. Description: NCI In Vivo Anticancer Drug Screen. Data for tumor model Adenocarcinoma 755 (subcutaneous) in B6D2F1 (BDF1) mice. The settings on record: endpoint: mean tumor weight, higher = larger tumour. As for the experimental part: The antitumor activity of compounds was measured in mice bearing transplantable tumors. Survival or tumor size were measured and the results are expressed as the measurement made in the treated group (T) divided by the measurement made in the vehicle treated control group (C). The tumor model used in this assay is Adenocarcinoma 755 (subcutaneous) in B6D2F1 (BDF1) mice

The mark [1] stands for this setting: dose: 125.0 mg/kg/injection, schedule: Q01DX011 (ip), vehicle: methylcellulose (MC).
Where [2] appears, read: dose: 250.0 mg/kg/injection, schedule: Q01DX011 (ip), vehicle: methylcellulose (MC).
The mark [3] stands for this setting: dose: 12.5 mg/kg/injection, schedule: Q01DX011 (ip), vehicle: methylcellulose (MC).
Setting [4] is: dose: 25.0 mg/kg/injection, schedule: Q01DX011 (ip), vehicle: methylcellulose (MC).
Setting [5] is: dose: 100.0 mg/kg/injection, schedule: Q01DX011 (ip), vehicle: methylcellulose (MC).

One may read the T/C as the result in the treated group divided by that in the control group, in per cent. In the case of `C=CC1CN2CCC1CC2C(O)c1ccnc2ccc(OC)cc12` (configuration not stated), the T/C is 109 % of control (dose: 28.96 mg/kg/injection, schedule: Q01DX011 (ip), vehicle: carboxymethylcellulose (CMC)); 121 % of control (dose: 57.93 mg/kg/injection, schedule: Q01DX011 (ip), vehicle: carboxymethylcellulose (CMC)); 70 % of control (dose: 92.68 mg/kg/injection, schedule: Q01DX011 (ip), vehicle: carboxymethylcellulose (CMC)); 76 % of control (dose: 115.85 mg/kg/injection, schedule: Q01DX011 (ip), vehicle: carboxymethylcellulose (CMC)); 82 % of control under setting [1]; 86 % of control (dose: 154.46 mg/kg/injection, schedule: Q01DX011 (ip), vehicle: carboxymethylcellulose (CMC)). Also, the T/C is 72 % of control (dose: 231.7 mg/kg/injection, schedule: Q01DX011 (ip), vehicle: carboxymethylcellulose (CMC)) and 91 % of control under setting [2].

Consider `O=C1C=C(N2CC2)C(=O)C(N2CC2)=C1N1CC1`, for which the T/C was 79 % of control (dose: 0.02 mg/kg/injection, schedule: Q01DX011 (ip), vehicle: saline); 61 % of control (dose: 0.05 mg/kg/injection, schedule: Q01DX011 (ip), vehicle: saline); 19 % of control (dose: 0.1 mg/kg/injection, schedule: Q01DX011 (ip), vehicle: saline); 42 % of control (dose: 3.0 micrograms/kg/injection, schedule: Q01DX011 (ip), vehicle: carboxymethylcellulose (CMC)); 25 % of control (dose: 5.0 micrograms/kg/injection, schedule: Q01DX011 (ip), vehicle: carboxymethylcellulose (CMC)); 65 % of control (dose: 5.0 micrograms/kg/injection, schedule: Q01DX011 (ip), vehicle: saline). Also, the T/C (dose: 10.0 micrograms/kg/injection, schedule: Q01DX011 (ip), vehicle: carboxymethylcellulose (CMC)) was 39 % of control; the T/C (dose: 10.0 micrograms/kg/injection, schedule: Q01DX011 (ip), vehicle: saline) was 54 % of control; the T/C (dose: 20.0 micrograms/kg/injection, schedule: Q01DX011 (ip), vehicle: carboxymethylcellulose (CMC)) was 8 % of control; the T/C (dose: 20.0 micrograms/kg/injection, schedule: Q01DX011 (ip), vehicle: saline) is 59 % of control; the T/C (dose: 25.0 micrograms/kg/injection, schedule: Q01DX011 (ip), vehicle: carboxymethylcellulose (CMC)) was 70 % of control; the T/C (dose: 31.0 micrograms/kg/injection, schedule: Q01DX011 (ip), vehicle: carboxymethylcellulose (CMC)) is 100 % of control. Further, the T/C reads like this: (dose: 40.0 micrograms/kg/injection, schedule: Q01DX011 (ip), vehicle: saline) 33 % of control; (dose: 62.0 micrograms/kg/injection, schedule: Q01DX011 (ip), vehicle: carboxymethylcellulose (CMC)) 69 % of control; (dose: 125.0 micrograms/kg/injection, schedule: Q01DX011 (ip), vehicle: carboxymethylcellulose (CMC)) 63 % of control.

For `Clc1ccc(CNc2ncnc3c2cnn3C2CCCCO2)cc1Cl` (configuration not stated), the T/C was 83 % of control under setting [3]; 105 % of control under setting [4]; 40 % of control and 61 % of control under setting [5]; 23 % of control (dose: 200.0 mg/kg/injection, schedule: Q01DX011 (ip), vehicle: methylcellulose (MC)).

Consider `CCN(CC)CCNc1ccc(C)c2sc3ccccc3c(=O)c12`, for which the T/C reads like this: under setting [3], 73 % of control; (dose: 12.93 mg/kg/injection, schedule: Q01DX011 (ip), vehicle: carboxymethylcellulose (CMC)) 98 % of control; under setting [4], 51 % of control; (dose: 25.87 mg/kg/injection, schedule: Q01DX011 (ip), vehicle: carboxymethylcellulose (CMC)) 117 % of control; (dose: 25.88 mg/kg/injection, schedule: Q01DX011 (ip), vehicle: carboxymethylcellulose (CMC)) 73 % of control; (dose: 32.35 mg/kg/injection, schedule: Q01DX011 (ip), vehicle: carboxymethylcellulose (CMC)) 75 % of control. Further, the T/C is 49 % of control (dose: 43.13 mg/kg/injection, schedule: Q01DX011 (ip), vehicle: carboxymethylcellulose (CMC)); 35 % of control (dose: 50.0 mg/kg/injection, schedule: Q01DX011 (ip), vehicle: methylcellulose (MC)); 44 % of control and 46 % of control and 59 % of control (dose: 51.75 mg/kg/injection, schedule: Q01DX011 (ip), vehicle: carboxymethylcellulose (CMC)); 15 % of control (dose: 59.1 mg/kg/injection, schedule: Q01DX011 (ip), vehicle: carboxymethylcellulose (CMC)); 23 % of control (dose: 64.7 mg/kg/injection, schedule: Q01DX011 (ip), vehicle: carboxymethylcellulose (CMC)); 7 % of control (dose: 82.8 mg/kg/injection, schedule: Q01DX011 (ip), vehicle: carboxymethylcellulose (CMC)). Moreover, the T/C under setting [5] was 1 % of control; the T/C (dose: 103.5 mg/kg/injection, schedule: Q01DX011 (ip), vehicle: carboxymethylcellulose (CMC)) was 5 % of control; the T/C (dose: 1617.5 micrograms/kg/injection, schedule: Q01DX011 (ip), vehicle: carboxymethylcellulose (CMC)) was 70 % of control; the T/C (dose: 3235.0 micrograms/kg/injection, schedule: Q01DX011 (ip), vehicle: carboxymethylcellulose (CMC)) is 38 % of control; the T/C (dose: 6470.0 micrograms/kg/injection, schedule: Q01DX011 (ip), vehicle: carboxymethylcellulose (CMC)) was 15 % of control; the T/C (dose: 8087.0 micrograms/kg/injection, schedule: Q01DX011 (ip), vehicle: carboxymethylcellulose (CMC)) was 72 % of control.

`COS(C)(=O)=O`: the T/C reads like this: (dose: 25.0 mg/kg/injection, schedule: Q01DX011 (ip), vehicle: carboxymethylcellulose (CMC)) 113 % of control; (dose: 50.0 mg/kg/injection, schedule: Q01DX011 (ip), vehicle: carboxymethylcellulose (CMC)) 88 % of control.

As to `O=C(CCBr)NCCCCCNC(=O)CCBr`, the T/C runs as follows: (dose: 56.0 mg/kg/injection, schedule: Q01DX011 (ip), vehicle: methylcellulose (MC)) 86 % of control; (dose: 113.0 mg/kg/injection, schedule: Q01DX011 (ip), vehicle: methylcellulose (MC)) 71 % of control; (dose: 225.0 mg/kg/injection, schedule: Q01DX011 (ip), vehicle: methylcellulose (MC)) 78 % of control; (dose: 450.0 mg/kg/injection, schedule: Q01DX011 (ip), vehicle: methylcellulose (MC)) 47 % of control.

On to `CC1CC2(C)C(=CC1=O)CCC1C3CCC(C)(O)C3(C)CC(O)C12F` (configuration not stated), for which the T/C (dose: 200.0 mg/kg/injection, schedule: Q01DX011 (sc), vehicle: steriod suspending solution) was 106 % of control and the T/C (dose: 400.0 mg/kg/injection, schedule: Q01DX011 (sc), vehicle: steriod suspending solution) is 92 % of control.

For `CC(C)(COS(C)(=O)=O)C(=O)N1CCN(C(=O)C(C)(C)COS(C)(=O)=O)CC1`, the T/C is, setting by setting: (dose: 2.4 mg/kg/injection, schedule: Q01DX011 (ip), vehicle: carboxymethylcellulose (CMC)) 162 % of control; (dose: 4.7 mg/kg/injection, schedule: Q01DX011 (ip), vehicle: carboxymethylcellulose (CMC)) 82 % of control; (dose: 9.4 mg/kg/injection, schedule: Q01DX011 (ip), vehicle: carboxymethylcellulose (CMC)) 60 % of control; (dose: 18.8 mg/kg/injection, schedule: Q01DX011 (ip), vehicle: carboxymethylcellulose (CMC)) 57 % of control.

For the compound `C=C1CN(CC)CCO1`, the T/C by setting is: (dose: 50.0 mg/kg/injection, schedule: Q01DX011 (ip), vehicle: other) 73 % of control; (dose: 100.0 mg/kg/injection, schedule: Q01DX011 (ip), vehicle: other) 72 % of control.

For `CSc1ncc(Br)c(Nc2ccc(Cl)c(Cl)c2)n1`, the T/C (dose: 15.0 mg/kg/injection, schedule: Q01DX011 (ip), vehicle: methylcellulose (MC)) is 57 % of control; the T/C (dose: 31.0 mg/kg/injection, schedule: Q01DX011 (ip), vehicle: methylcellulose (MC)) is 66 % of control; the T/C (dose: 62.0 mg/kg/injection, schedule: Q01DX011 (ip), vehicle: methylcellulose (MC)) was 78 % of control; the T/C under setting [1] is 67 % of control; the T/C under setting [2] is 62 % of control.

Regarding `CC(Sc1ncnc2nc[nH]c12)c1ccccc1` (configuration not stated), the T/C (dose: 0.37 mg/kg/injection, schedule: Q01DX011 (ip), vehicle: methylcellulose (MC)) is 60 % of control; the T/C (dose: 0.65 mg/kg/injection, schedule: Q01DX011 (ip), vehicle: methylcellulose (MC)) is 83 % of control; the T/C (dose: 1.11 mg/kg/injection, schedule: Q01DX011 (ip), vehicle: methylcellulose (MC)) is 35 % of control; the T/C (dose: 1.3 mg/kg/injection, schedule: Q01DX011 (ip), vehicle: methylcellulose (MC)) is 97 % of control; the T/C (dose: 2.5 mg/kg/injection, schedule: Q01DX011 (ip), vehicle: methylcellulose (MC)) is 37 % of control; the T/C (dose: 3.33 mg/kg/injection, schedule: Q01DX011 (ip), vehicle: methylcellulose (MC)) was 62 % of control. For the same compound, the T/C (dose: 5.0 mg/kg/injection, schedule: Q01DX011 (ip), vehicle: methylcellulose (MC)) was 12 % of control and the T/C (dose: 10.0 mg/kg/injection, schedule: Q01DX011 (ip), vehicle: methylcellulose (MC)) is 18 % of control.
